Results from patent US20250352458A1, “IMPROVEMENTS IN OR RELATING TO EXTRACTS” (Givaudan SA, priority 2020, published 2025).
Where “and” joins values, the source holds several entries; their conditions need not be identical. Identical values can stand only once.

Assays:
[1] = test system: H. influenzae (ATCC 49766); experiment: MIC evaluation, optical density and percentage of inhibition; assay type: cell-based, Haemophilus influenza
Excerpt: The minimum inhibitory concentration of the following active ingredients has been assessed: • Mangifera indica extract (in propanediol/water 75/25); • Vehicule (propanediol/water 75/25, expressed as Activolo3-75%); • “Pool Mangiferin” which is the pure molecule mangiferin at the same concentration in the Mangifera indica extract in propanediol/water 75/25. • “Pool Mangifera” with is the mix of the 4 molecules (mangiferin, maclurin-C-glucoside, irifluophenone-C-glucoside, gallotanin) at the same concentration in the Mangifera indica extract in propane-diol/water 75/25.
H. influenzae (ATCC 49766) was cultured in Mueller Hinton broth as recommended by ATCC with 5% CO2. The Bacterial concentration was adjusted in Mueller Hinton broth to obtain a solution at 1.106 CFU/ml (5.104 CFU/well) (launch of culture at D-2). […] Two day later, the inhibition of H. influenzae was evaluated using Colony counter IUL instruments, flash and go model (reading at D2).
Concentrations are expressed in % (m/v).
The diluted bacterial suspension was added to columns 2 to 12. RCB medium was added to column 1 as negative control.
Optical density was determined, which correlates to the bacterial growth. Thereafter, an inhibition value (%) was determined for each condition using the following formula: […]
The percentage of inhibition must be higher or equal than 90% to reach the MIC.

P. acnes (ATCC 6919) = experiment: TKC (Time Kill Curve) determination; assay type: cell-based, Propionibacterium acnes
Method: Each strain was plated on appropriate plate and grown in the appropriate conditions. Colonies were resuspended in 5 mL of PBS to obtain a 0.5 McFarland O D (approximately 1.10^8 cfu/ml).After two days, the bacterial concentrations we readjusted in reinforced clostridial broth to obtain a solution at 1.10^6 CFU/ml (5.10^4 CFU/well). […] Bacteria quantification has been repeated at […]. For bacteria quantification a Colony counter IUL instruments, flash and go model was used. A Time Kill Curve (TKC) was performed to determine the effect of the active versus placebo on the growth of Propionibacterium acnes.

S. aureus (ATCC 33592) = experiment: MIC evaluation, optical density and percentage of inhibition; assay type: cell-based, Staphylococcus aureus
Excerpt: The minimum inhibitory concentration of the following active ingredients has been assessed: • Mangifera indica extract (in propanediol/water 75/25); • Vehicule (propanediol/water 75/25, expressed as Activolo3-75%); • “Pool Mangiferin” which is the pure molecule mangiferin at the same concentration in the Mangifera indica extract in propanediol/water 75/25. • “Pool Mangifera” with is the mix of the 4 molecules (mangiferin, maclurin-C-glucoside, irifluophenone-C-glucoside, gallotanin) at the same concentration in the Mangifera indica extract in propane-diol/water 75/25. S. aureus: The day before the experiment S. aureus (ATCC 33592) was plated and grown overnight at 37° C. Colonies were resuspended in 5 mL of TSB (Tryptic Soy Broth) to obtain a 0.5 McFarland D O (≈1.10^8 CFU/ml) (launch of culture at D-1). […] Concentrations are expressed in % (m/v). […] The diluted bacterial suspension was added to columns 2 to 12. RCB medium was added to column 1 as negative control. Optical density was determined, which correlates to the bacterial growth.

[2] = 0.39 10^−2 % (m/v), plate col. 12
[3] = 0.78 10^−2 % (m/v), plate col. 11
[4] = 1.56 10^−2 % (m/v), plate col. 10
[5] = 3.1310^−2 % (m/v), plate col. 9
[6] = 6.25 10^−2 % (m/v), plate col. 8
[7] = 12.5 10^−2 % (m/v), plate col. 7
[8] = 25.0 10^−2 % (m/v), plate col. 6

O=c1c2cc(O)c(O)cc2oc2cc(O)c([C@@H]3O[C@H](CO)[C@@H](O)[C@H](O)[C@H]3O)c(O)c12 [pool mangiferin]
Optical density, H. influenza [1, 2]: 0.190 and 0.197 | Percentage of inhibition, H. influenza [1, 2]: 1.9% and 0% | Optical density, H. influenza ([1]; 0.5% (m/v), plate col. 5): 0.193 and 0.191 | Percentage of inhibition, H. influenza ([1]; 0.5% (m/v), plate col. 5): −0.3% and 1.2% | Optical density, H. influenza [1, 3]: 0.188 and 0.197 | Percentage of inhibition, H. influenza [1, 3]: 3.4% and 0% | Optical density, H. influenza ([1]; 1% (m/v), plate col. 4): 0.190 and 0.183 | Percentage of inhibition, H. influenza ([1]; 1% (m/v), plate col. 4): 1.9% and 7.0% | Optical density, H. influenza [1, 4]: 0.185 and 0.196 | Percentage of inhibition, H. influenza [1, 4]: 5.5% and 0% | antibacterial effect against H. influenza (in words) ([1]; 2%): no antibacterial effect | Optical density, H. influenza ([1]; 2% (m/v), plate col. 3): 0.184 and 0.181 | Percentage of inhibition, H. influenza ([1]; 2% (m/v), plate col. 3): 6.3% and 8.4% | Optical density, H. influenza [1, 5]: 0.180 and 0.193 | Percentage of inhibition, H. influenza [1, 5]: 9.1% and 0% | Optical density, H. influenza [1, 6]: 0.185 and 0.197 | Percentage of inhibition, H. influenza [1, 6]: 5.5% and 0% | Optical density, H. influenza [1, 7]: 0.187 and 0.195 | Percentage of inhibition, H. influenza [1, 7]: 4.1% and 0% | Optical density, H. influenza [1, 8]: 0.189 and 0.196 | Percentage of inhibition, H. influenza [1, 8]: 2.6% and 0% | Time Kill Curve P. acnes, bacteria quantification (P. acnes (ATCC 6919); 0.5%, T0): 6.0 Log10 CFU/ml | Time Kill Curve P. acnes, bacteria quantification (P. acnes (ATCC 6919); 0.5%, T + 4 h): 6.2 Log10 CFU/ml | Time Kill Curve P. acnes, bacteria quantification (P. acnes (ATCC 6919); 0.5%, T + 8 h): 5.7 Log10 CFU/ml | Time Kill Curve P. acnes, bacteria quantification (P. acnes (ATCC 6919); 0.5%, T + 24 h): 6.6 Log10 CFU/ml | Time Kill Curve P. acnes, bacteria quantification (P. acnes (ATCC 6919); 0.5%, T + 32 h): 6.7 Log10 CFU/ml | Time Kill Curve P. acnes, bacteria quantification (P. acnes (ATCC 6919); 0.5%, T + 48 h): 7.8 Log10 CFU/ml | Time Kill Curve P. acnes, bacteria quantification (P. acnes (ATCC 6919); 1%, T0): 6.0 Log10 CFU/ml | Time Kill Curve P. acnes, bacteria quantification (P. acnes (ATCC 6919); 1%, T + 4 h): 6.0 Log10 CFU/ml | Time Kill Curve P. acnes, bacteria quantification (P. acnes (ATCC 6919); 1%, T + 8 h): 5.8 Log10 CFU/ml | Time Kill Curve P. acnes, bacteria quantification (P. acnes (ATCC 6919); 1%, T + 24 h): 6.5 Log10 CFU/ml | Time Kill Curve P. acnes, bacteria quantification (P. acnes (ATCC 6919); 1%, T + 32 h): 6.7 Log10 CFU/ml | Time Kill Curve P. acnes, bacteria quantification (P. acnes (ATCC 6919); 1%, T + 48 h): 7.8 Log10 CFU/ml | Time Kill Curve P. acnes, bacteria quantification (P. acnes (ATCC 6919); 2%, T0): 6.0 Log10 CFU/ml | Time Kill Curve P. acnes, bacteria quantification (P. acnes (ATCC 6919); 2%, T + 4 h): 5.7 Log10 CFU/ml | Time Kill Curve P. acnes, bacteria quantification (P. acnes (ATCC 6919); 2%, T + 8 h): 5.7 Log10 CFU/ml | Time Kill Curve P. acnes, bacteria quantification (P. acnes (ATCC 6919); 2%, T + 24 h): 6.5 Log10 CFU/ml | Time Kill Curve P. acnes, bacteria quantification (P. acnes (ATCC 6919); 2%, T + 32 h): 6.7 Log10 CFU/ml | Time Kill Curve P. acnes, bacteria quantification (P. acnes (ATCC 6919); 2%, T + 48 h): 7.8 Log10 CFU/ml | Optical density, S. aureus (S. aureus (ATCC 33592); [2]): 0.387 and 0.392 | Percentage of inhibition, S. aureus (S. aureus (ATCC 33592); [2]): 3.0% and 1.6% | Optical density, S. aureus (S. aureus (ATCC 33592); 0.5% (m/v), plate col. 5): 0.363 and 0.359 | Percentage of inhibition, S. aureus (S. aureus (ATCC 33592); 0.5% (m/v), plate col. 5): 9.8% and 11.0% | Optical density, S. aureus (S. aureus (ATCC 33592); [3]): 0.384 and 0.366 | Percentage of inhibition, S. aureus (S. aureus (ATCC 33592); [3]): 3.9% and 9.0% | Optical density, S. aureus (S. aureus (ATCC 33592); 1% (m/v), plate col. 4): 0.346 and 0.348 | Percentage of inhibition, S. aureus (S. aureus (ATCC 33592); 1% (m/v), plate col. 4): 14.7% and 14.1% | Optical density, S. aureus (S. aureus (ATCC 33592); [4]): 0.365 and 0.369 | Percentage of inhibition, S. aureus (S. aureus (ATCC 33592); [4]): 9.3% and 8.1% | antibacterial effect on S. aureus (in words) (S. aureus (ATCC 33592); 2%): slight antibacterial effect | Optical density, S. aureus (S. aureus (ATCC 33592); 2% (m/v), plate col. 3): 0.320 and 0.327 | Percentage of inhibition, S. aureus (S. aureus (ATCC 33592); 2% (m/v), plate col. 3): 22.1% and 20.1% | Optical density, S. aureus (S. aureus (ATCC 33592); [5]): 0.377 and 0.378 | Percentage of inhibition, S. aureus (S. aureus (ATCC 33592); [5]): 5.9% and 5.6% | Optical density, S. aureus (S. aureus (ATCC 33592); [6]): 0.370 and 0.364 | Percentage of inhibition, S. aureus (S. aureus (ATCC 33592); [6]): 7.9% and 9.6% | Optical density, S. aureus (S. aureus (ATCC 33592); [7]): 0.368 and 0.367 | Percentage of inhibition, S. aureus (S. aureus (ATCC 33592); [7]): 8.4% and 8.7% | Optical density, S. aureus (S. aureus (ATCC 33592); [8]): 0.370 and 0.368 | Percentage of inhibition, S. aureus (S. aureus (ATCC 33592); [8]): 7.9% and 8.4%
